Test results reported in PubChem BioAssay (NCI).
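Interpolation was linear, between the two tested concentrations surrounding the appropriate level; five concentrations were tested over 48 hours in 96-well plates. TGI denotes the concentration required for complete inhibition of growth.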

Key:
Assay in all cases: inhibition of tumour cell growth, NCI panel, 48 h
MDA-N = tested on: MDA-N
A498 renal = tested on: A498 renal
MOLT-4 leukemia = tested on: MOLT-4 leukemia
HOP-62 NSCLC = tested on: HOP-62 NSCLC
T-47D breast = tested on: T-47D breast
UACC-257 melanoma = tested on: UACC-257 melanoma
K-562 leukemia = tested on: K-562 leukemia
OVCAR-5 ovarian = tested on: OVCAR-5 ovarian
MDA-MB-435 = tested on: MDA-MB-435
NCI-H522 lung = tested on: NCI-H522 lung
COLO 205 colon = tested on: COLO 205 colon
LOX IMVI melanoma = tested on: LOX IMVI melanoma
MDA-MB-231 breast = tested on: MDA-MB-231 breast
MCF7 breast = tested on: MCF7 breast
ACHN renal = tested on: ACHN renal
HT29 colon = tested on: HT29 colon
BT-549 breast = tested on: BT-549 breast
SK-MEL-2 melanoma = tested on: SK-MEL-2 melanoma
NCI-H226 lung = tested on: NCI-H226 lung
A549 NSCLC = tested on: A549 NSCLC
RPMI-8226 leukemia = tested on: RPMI-8226 leukemia
SK-OV-3 ovarian = tested on: SK-OV-3 ovarian
SR leukemia = tested on: SR leukemia
786-0 renal = tested on: 786-0 renal
TK-10 renal = tested on: TK-10 renal
NCI-H460 lung = tested on: NCI-H460 lung
EKVX NSCLC = tested on: EKVX NSCLC
UACC-62 melanoma = tested on: UACC-62 melanoma
SNB-75 CNS = tested on: SNB-75 CNS
SK-MEL-5 melanoma = tested on: SK-MEL-5 melanoma
HCC-2998 colon = tested on: HCC-2998 colon
SF-539 CNS = tested on: SF-539 CNS
HS 578T breast = tested on: HS 578T breast
KM12 colon = tested on: KM12 colon
SK-MEL-28 melanoma = tested on: SK-MEL-28 melanoma
OVCAR-3 ovarian = tested on: OVCAR-3 ovarian
SF-268 CNS = tested on: SF-268 CNS
NCI-H23 lung = tested on: NCI-H23 lung
SF-295 CNS = tested on: SF-295 CNS
PC-3 prostate = tested on: PC-3 prostate
RXF 393 renal = tested on: RXF 393 renal
CCRF-CEM leukemia = tested on: CCRF-CEM leukemia
DU-145 prostate = tested on: DU-145 prostate
CAKI-1 renal = tested on: CAKI-1 renal
SW-620 colon = tested on: SW-620 colon
MALME-3M melanoma = tested on: MALME-3M melanoma
SNB-19 CNS = tested on: SNB-19 CNS
IGROV1 ovarian = tested on: IGROV1 ovarian
NCI/ADR-RES ovarian = tested on: NCI/ADR-RES ovarian
U251 CNS = tested on: U251 CNS
OVCAR-4 ovarian = tested on: OVCAR-4 ovarian
HCT-15 colon = tested on: HCT-15 colon
M14 melanoma = tested on: M14 melanoma
HOP-92 NSCLC = tested on: HOP-92 NSCLC
SN12C renal = tested on: SN12C renal
HCT-116 colon = tested on: HCT-116 colon

`CC(=O)OC/C=C(/C=C/CNC1CCCCC1)OC(C)=O` gave a TGI (MDA-N) of 31.9 µM, a TGI (A498 renal) of 33.9 µM and a TGI (MOLT-4 leukemia) of over 100 µM. The TGI (HOP-62 NSCLC) was 31.1 µM, the TGI (T-47D breast) was 36.7 µM and the TGI (UACC-257 melanoma) was 29.4 µM. It also gave a TGI (K-562 leukemia) of 32 µM, a TGI (OVCAR-5 ovarian) of 29.9 µM and a TGI (MDA-MB-435) of 30.4 µM. For the same compound, the TGI (NCI-H522 lung) was 42.1 µM, the TGI (COLO 205 colon) was 28.2 µM and the TGI (LOX IMVI melanoma) was 37.5 µM. It also gave a TGI (MDA-MB-231 breast) of 27.9 µM, a TGI (MCF7 breast) of 66.9 µM and a TGI (ACHN renal) of 30.1 µM. It also gave a TGI (HT29 colon) of 35.5 µM, a TGI (BT-549 breast) of 31.3 µM and a TGI (SK-MEL-2 melanoma) of 43.8 µM. The TGI (NCI-H226 lung) was 98.5 µM, the TGI (A549 NSCLC) was over 100 µM and the TGI (RPMI-8226 leukemia) was 25.5 µM. It also gave a TGI (SK-OV-3 ovarian) of 33.8 µM, a TGI (SR leukemia) of 35.7 µM and a TGI (786-0 renal) of 23.9 µM. For the same compound, the TGI (TK-10 renal) was 30.6 µM, the TGI (NCI-H460 lung) was 52.1 µM and the TGI (EKVX NSCLC) was 30.1 µM. The TGI (UACC-62 melanoma) was 33.2 µM, the TGI (SNB-75 CNS) was 93.6 µM and the TGI (SK-MEL-5 melanoma) was 33.5 µM. It also gave a TGI (HCC-2998 colon) of 40.3 µM, a TGI (SF-539 CNS) of 24.2 µM and a TGI (HS 578T breast) of 80.7 µM. The TGI (KM12 colon) was 32.9 µM, the TGI (SK-MEL-28 melanoma) was 30.9 µM and the TGI (OVCAR-3 ovarian) was 37.7 µM. The TGI (SF-268 CNS) was 35.5 µM, the TGI (NCI-H23 lung) was 29.9 µM and the TGI (SF-295 CNS) was 33.2 µM. It also gave a TGI (PC-3 prostate) of 31.1 µM, a TGI (RXF 393 renal) of 32.5 µM and a TGI (CCRF-CEM leukemia) of over 100 µM. The TGI (DU-145 prostate) was 31.6 µM, the TGI (CAKI-1 renal) was 26.7 µM and the TGI (SW-620 colon) was 29.8 µM. It also gave a TGI (MALME-3M melanoma) of 32.9 µM, a TGI (SNB-19 CNS) of 49.9 µM and a TGI (IGROV1 ovarian) of 34.3 µM. It also gave a TGI (NCI/ADR-RES ovarian) of 44.6 µM, a TGI (U251 CNS) of 32.9 µM and a TGI (OVCAR-4 ovarian) of 35.7 µM. For the same compound, the TGI (HCT-15 colon) was 37 µM, the TGI (M14 melanoma) was 21.2 µM and the TGI (HOP-92 NSCLC) was 25.5 µM. For the same compound, the TGI (SN12C renal) was 32.1 µM and the TGI (HCT-116 colon) was 30.5 µM.
